The METLIN SMRT retention time set (Domingo-Almenara et al. 2019)

Test: gradient 5% acetonitrile 3 min, to 50% in 2 min, to 85% in 15 min, held 3 min, 100 µL/min
Conditions: column: Zorbax Extend-C18 2.1 x 50 mm; eluents: water / acetonitrile, 0.1% formic acid
In short: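 Mixtures of ~100 pure standards were chromatographed on a Zorbax Extend-C18 column (2.1 × 50 mm, 1.8 μm) at 100 μL/min using water and acetonitrile, each with 0.1% formic acid. Detection used a quadrupole time-of-flight mass spectrometer in positive and negative ionization mode, and data collection spanned 3 months. Retention time was obtained from adduct peaks picked computationally and each checked manually.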

RP-LC retention time [s] | SMILES
869 | Cc1nnc2sc(SCc3ccc(Cl)cc3Cl)nn2c1=O
578 | Cn1c(CCN2C(=O)C3(CCOCC3)CC2c2nnnn2C(C)(C)C)nc2ccccc21 (stereo not drawn)
631 | COCCn1c(CC2CCN(C(=O)Nc3cccc(Cl)c3C)C2)nc2cccnc21 (stereo not drawn)
686 | CCC(C)NC(=O)CC1CCN(C(=O)c2[nH]c(C)cc2C)CC1 (stereo not drawn)
706 | O=[N+]([O-])c1ccc(CSc2nnc(-c3ccncc3)n2-c2ccccc2)cc1
602 | CC(C)OCCCNC(=O)C1Cn2cccc2C(=O)N1 (stereo not drawn)
721 | CC1CCCN(c2ccc(-c3noc(CN(C)C4CCCCC4)n3)cn2)C1 (stereo not drawn)
778 | COc1ccc(Nc2cc(C(=O)N3CCC(C)CC3)nc3cc(OC)c(OC)cc23)cc1Cl
606 | COCCN1C(=O)c2cccn2CC1CNC(=O)c1sc(C)nc1C (stereo not drawn)
861 | O=C(Nc1cccn2nc(C3CCC3)nc12)c1cccs1
928 | O=C(CN1C(=O)CC(c2cccs2)=Nc2ccccc21)Nc1ccc(F)cc1
827 | COc1cc(-c2noc(-c3cn(C)c4ccc(C)cc4c3=O)n2)cc(OC)c1OC
818 | COc1cc(OC)c(NC(=O)Cn2c(N(C)Cc3ccccc3)nc(C)cc2=O)cc1Cl
725 | CC(C)N(C(=O)Cn1c(CN(C)C(=O)c2ccco2)nc2ccccc21)c1ccccc1
649 | COC(=O)c1cnc2nc(C)ccc2c1Nc1ccccc1F
839 | O=C(CSc1nc(-c2ccccc2)cs1)NCc1ccco1
592 | CS(=O)(=O)N1CC[C@H]2CN(Cc3cn[nH]c3-c3ccccc3)C[C@@]2(CF)C1
1030 | Cc1ccc(-c2noc(C3CCCN3C(=O)CNS(=O)(=O)c3ccc(Cl)cc3)n2)cc1 (stereo not drawn)
854 | COc1ccc(OC)c(S(=O)(=O)N2CCCC(C(=O)NCc3ccccc3OC)C2)c1 (stereo not drawn)
809 | COC(=O)c1ccccc1NC(=O)N1CCN(Cc2nc(-c3cccc(Cl)c3)oc2C)CC1
724 | CCc1nnc(NC(=O)C2CCCN(c3ncnc4c3nc3n4CCCCC3)C2)s1 (stereo not drawn)
645 | COc1ccc(CCc2nc3nccc(-c4ccncc4)n3n2)cc1OC

RP-LC retention time [s] | SMILES
705 | CCC(C(=O)N1CCN(c2ccccn2)CC1)n1nc(C)c2sc3ccccc3c2c1=O (stereo not drawn)
880 | CCc1ccccc1NC(=O)C1CCN(S(C)(=O)=O)c2cc(C)ccc2O1 (stereo not drawn)
544 | COCC1(O)CCOC2(CCN(Cc3ccccc3F)CC2)C1 (stereo not drawn)
858 | CCOC(=O)C1CCCN(S(=O)(=O)c2cc(C(=O)N3CCCCC3)n(C)c2C)C1 (stereo not drawn)
647 | Cc1ccn2cc(-c3ccc(NC(=O)c4cccc(F)c4)cc3)nc2n1
653 | COc1ccc(-c2cn3cccnc3n2)cc1NC(=O)c1c(F)cccc1F
625 | c1ccc(N2CCN(Cc3nc(-c4ccc(N5CCSCC5)nc4)no3)CC2)nc1
1230 | Cc1cc(C)cc(NS(=O)(=O)c2cc(-c3cc(C(F)(F)F)on3)sc2C)c1
601 | Cc1cnc(C(=O)NC2C[C@H]3CC[C@@H](C2)N3C(=O)c2ccoc2)cn1 (stereo partly drawn)
1210 | Cc1sc(C)c(S(=O)(=O)Nc2ccc(Cl)cc2)c1-c1cc(C(F)(F)F)on1
779 | COCc1nc(C2CCN(S(=O)(=O)c3ccc4c(c3)OCCO4)C2)no1 (stereo not drawn)
666 | CNC(=O)CCc1nc2ccccc2n(CC(=O)NCc2ccc(F)cc2)c1=O
738 | CC1CCc2nc3ncn(CC(=O)Nc4cccc(C#N)c4)c(=O)c3cc2C1 (stereo not drawn)
763 | COc1ccccc1CNC(=O)Cn1ccc2ccc(-c3nnc(C)o3)cc21
834 | O=C(Cn1c2ccccc2c2ncn(Cc3nc(C4CC4)no3)c(=O)c21)NC1CCCCC1
702 | COc1ccccc1NC(=O)Nc1cccc(-c2ccc(N3CCOCC3)nn2)c1
773 | CCCc1c(C(=O)O)nnn1-c1ccc(OC)c(Cl)c1
573 | CC(C)N(CC(=O)N1CCNCC1)C(=O)c1cccc(Br)c1
704 | Cc1ccc(NC(=O)Nc2nc(C(=O)N3CCN(C(=O)c4ccco4)CC3)cs2)cc1
571 | CCCc1nc(NCc2ccccn2)ncc1C(=O)O
994 | Cc1cc(NC(=O)c2cnc(-c3ccccc3)nc2-c2ccncc2)ccc1Br
704 | Nc1ncnc(Nc2ccc(Cl)cc2)n1

RP-LC retention time [s] | SMILES
605 | COc1cc(-c2noc(C3CC(=O)N(c4ccc(C(C)C)cc4)C3)n2)cc(OC)c1OC (stereo not drawn)
732 | Cc1ccc(CNC(=O)C2CC(=O)N(c3ccc4oc(C)nc4c3)C2)cc1 (stereo not drawn)
690 | CN(C)c1cccc(C(=O)N2CCN(c3cc(-c4ccccc4)[nH]n3)CC2)c1
693 | Cc1ncsc1C1N(C2CCN(Cc3cn(C)c4ccccc34)CC2)C(=O)C12CCCC2 (stereo not drawn)
940 | O=C(CN1C(=O)CN(C(=O)Nc2ccccc2)c2ccccc21)N1CCCc2ccccc21
670 | CCCNC(=O)C1CCN(c2ccc(SCC(=O)Nc3ccccc3Br)nn2)CC1
1030 | COc1cc(OC)c(NC(=O)c2cc3c(=O)oc4ccccc4c3n2C)cc1Cl
712 | Cc1ccc(C)c(NC(=O)N2CCC(c3nc(C(=O)N4CCOCC4)c(C)o3)CC2)c1
662 | O=C(Nc1cnn(-c2ncc(N3CCCCC3)cn2)c1)c1ccncc1
775 | CCc1noc([C@@H]2CC(F)(F)CN2C(=O)CCc2c(C)noc2C)n1
644 | CC(C)(C)NC(=O)N1CCC(CNC(=O)c2ccccn2)CC1
937 | CCc1nc(-c2csc(S(=O)(=O)N3CCCC(C(=O)NC4CCCC4)C3)c2)no1 (stereo not drawn)
663 | COc1ccc(CNC(=O)[C@@]23CCCC[C@H]2N(C)C(=O)CC3)c(OC)c1
732 | O=C(Nc1nccs1)C1CCN(C(=O)c2cc(-c3ccccc3)on2)CC1
1080 | O=S(=O)(c1ccc(-c2csc(Nc3ccc(Cl)cc3)n2)cc1)N1CCOCC1
815 | CC1(C(=O)NCc2ccccc2)CN(S(C)(=O)=O)CC(=O)N1Cc1cccc(Br)c1 (stereo not drawn)
599 | CNC(=O)CSc1nnc(N2CCN(C(=O)c3cc(=O)c4ccccc4o3)CC2)s1
729 | Cc1ccc(CSc2nccc3c2ccn3CC(=O)NCc2ccco2)cc1
932 | COc1ccc(OC)c(NC(=O)N(C)CCc2noc(COc3ccccc3F)n2)c1
762 | O=C(NC1CC1)c1cn(-c2ccc(-c3nc(C4CC4)no3)cn2)cn1
726 | CN1c2ccccc2C(=O)NC12CCN(C(=O)Nc1cccc(F)c1)CC2
577 | CCCN1CCN(C(=O)Cn2nc(C)c3sc(CC)nc3c2=O)CC1

RP-LC retention time [s] | SMILES
779 | CNC(=O)N1CCCC(c2cccc(C(=O)NCc3ccc(SC)cc3)c2)C1 (stereo not drawn)
821 | CCC(=O)NC1CCc2cccc(OC)c2C1 (stereo not drawn)
1290 | Cc1ccc(-c2noc(Cn3c(=O)n(Cc4ccccc4Cl)c(=O)c4sccc43)n2)cc1C
797 | CCC(=O)N(C1CCOCC1)C1CCN(S(=O)(=O)c2ccccc2F)CC1
850 | COc1ccc(-c2noc(C3CC(=O)N(c4ccc(F)cc4)C3)n2)c(OC)c1 (stereo not drawn)
1140 | Cc1ccc(-c2nc(-c3ccc4nnc(C)n4c3)no2)c(C)c1
1030 | CSc1ccc(CNC(=O)CCCn2nc(-n3cccc3)c3c(C)cc(C)nc32)cc1
626 | CCCN1CCN(C(=O)c2csc(N3CCN(c4ccc(OC)cc4)CC3)n2)CC1
704 | Cc1ccc(CNC(=O)c2cn3c(n2)COCC3)cc1C
640 | O=C(CC1CCN(C(=O)c2ccc3oc(C4CC4)nc3c2)CC1)NCC1CCCO1 (stereo not drawn)
611 | Cc1cc(C)c2c(N3CCOCC3)nc(C(=O)N(C)Cc3ccco3)nc2n1
918 | COc1ccc2cc(C(=O)N3CCCC(c4nnc(-c5ccccc5F)s4)C3)[nH]c2c1 (stereo not drawn)
644 | CCOCC(=O)N1CCC(N2CC(OCC3CC3)C23CCCCC3)CC1 (stereo not drawn)
1020 | Cc1nn(C)c2nc(OC(C)C(=O)NCc3ccc(Cl)cc3)cc(C(F)(F)F)c12 (stereo not drawn)
672 | COc1cc(-c2nc3ncccn3c2Nc2cc(C)ccc2C)ccc1O
965 | O=C(CSc1cc(-n2cccn2)ncn1)Nc1ccccc1Br
561 | O=C(c1ccc2c(c1)OCO2)N1CCC(N2C[C@H]3C[C@H](C2)[C@H]2CCCC(=O)N2C3)CC1
1090 | CCc1nc(-c2csc(S(=O)(=O)N3CCCC(C(=O)Nc4cc(C)ccc4C)C3)c2)no1 (stereo not drawn)
563 | O=C(CN1C[C@H]2C[C@H](C1)[C@H]1CCCC(=O)N1C2)NCC1CC1
677 | Cc1cccc(-c2ncccc2CNS(=O)(=O)c2cccs2)c1
1300 | COc1ccc(-n2c(=O)c(C(=O)Nc3cc(F)cc(F)c3)c(O)c3cccnc32)cc1

SMILES | RP-LC retention time [s]
O=C(COc1ccc(Cl)cc1)N1CCN(CC(F)(F)F)CC1 | 853
